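Following 48 hours of exposure in 96-well plates, responses at five concentrations were used to interpolate endpoints linearly. At the GI50, growth is halved. At the TGI there is no net growth.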
Experiments:
Test in all cases: inhibition of tumour cell growth, NCI panel, 48 h
KM20L2 colon = tested on: KM20L2 colon
M19-MEL melanoma = tested on: M19-MEL melanoma
SNB-78 CNS = tested on: SNB-78 CNS
DLD-1 colon = tested on: DLD-1 colon
BT-549 breast = tested on: BT-549 breast
T-47D breast = tested on: T-47D breast
MCF7 breast = tested on: MCF7 breast
MDA-N = tested on: MDA-N
RXF-631 renal = tested on: RXF-631 renal

COc1cc[c]([Sn]([c]2ccc(OC)cc2)([c]2ccc(OC)cc2)[c]2ccc(OC)cc2)cc1
GI50 (KM20L2 colon): 18.2 µM | TGI (KM20L2 colon): 47 µM | GI50 (M19-MEL melanoma): 34.6 µM | TGI (M19-MEL melanoma): > 100 µM | GI50 (SNB-78 CNS): 23.7 µM | TGI (SNB-78 CNS): 71 µM

CN(C)CCNC(=O)c1cccc2c1nc(-c1ccc(F)cc1)c1ccccc12
TGI (M19-MEL melanoma): 18.6 µM | TGI (DLD-1 colon): 15 µM | TGI (SNB-78 CNS): 25.7 µM

CSc1ccc(C2=C(c3ccccc3)C(=O)OC2)cc1
GI50 (BT-549 breast): 16.2 µM | TGI (BT-549 breast): > 100 µM | GI50 (T-47D breast): 1.22 µM | TGI (T-47D breast): > 100 µM | GI50 (MCF7 breast): 0.81 µM

CC(C)=CCc1cc2c(cc1O)C1=C(C(=O)C3=C(C1=O)S(=O)(=O)CCN3)C(C=C(C)C)O2 (configuration not stated)
GI50 (BT-549 breast): 2.31 µM | TGI (BT-549 breast): 4.78 µM | GI50 (T-47D breast): 0.714 µM | TGI (T-47D breast): 7.15 µM | GI50 (MCF7 breast): 0.354 µM | TGI (MCF7 breast): 1.31 µM

O=C(CS(=O)(=O)c1nc2ccccc2nc1-c1ccccc1)Nc1ccc(F)cc1
GI50 (BT-549 breast): 29.1 µM | TGI (BT-549 breast): > 100 µM | GI50 (T-47D breast): 56.6 µM | TGI (T-47D breast): > 100 µM | GI50 (MCF7 breast): 43.1 µM | TGI (MCF7 breast): > 100 µM

c1ccc(-c2oc(-c3ccccc3)c(CN3CCCCC3)c2CN2CCCCC2)cc1
GI50 (BT-549 breast): 3.35 µM | TGI (BT-549 breast): 13.3 µM | GI50 (T-47D breast): 2.71 µM | TGI (T-47D breast): 11.7 µM | GI50 (MCF7 breast): 1.66 µM | TGI (MCF7 breast): 6.15 µM

C=C1C(=O)O[C@H]2[C@H]1CC/C(COC(=O)c1cc(OC)c(OC)c(OC)c1)=C\CC[C@@]1(C)O[C@@H]21
GI50 (BT-549 breast): 1.06 µM | TGI (BT-549 breast): 2.35 µM | GI50 (T-47D breast): 0.931 µM | TGI (T-47D breast): 3.54 µM

COC(=O)C(=O)Cc1nc2ccccc2s1
TGI (KM20L2 colon): > 100 µM | TGI (M19-MEL melanoma): > 100 µM | TGI (DLD-1 colon): > 100 µM | TGI (SNB-78 CNS): > 100 µM

O=C1CC2OCC=C3CN4CCC56c7ccccc7N1C5C2C3CC46O (configuration not stated)
TGI (BT-549 breast): > 100 µM | TGI (T-47D breast): > 100 µM | TGI (MDA-N): > 100 µM | TGI (MCF7 breast): > 100 µM

O=C(c1ccc(O)cc1O)C1C(c2ccc(O)cc2)OC(c2ccc(O)cc2)C1C(=O)c1ccc(O)cc1O (configuration not stated)
TGI (KM20L2 colon): > 100 µM | TGI (M19-MEL melanoma): 36.5 µM | TGI (DLD-1 colon): > 100 µM | TGI (SNB-78 CNS): > 100 µM

O=C1NC(=S)S/C1=C\c1cn(-c2ccccc2)nc1-c1ccccc1
GI50 (BT-549 breast): 5.2 µM | TGI (BT-549 breast): 23.7 µM | GI50 (T-47D breast): 4.59 µM | TGI (T-47D breast): 32.6 µM | GI50 (MCF7 breast): 8.31 µM | TGI (MCF7 breast): 94.1 µM

C#Cc1cccc(Nc2ncnc3cc(NC(=O)CCl)ccc23)c1
GI50 (BT-549 breast): 3.23 µM | TGI (BT-549 breast): 6.99 µM | GI50 (T-47D breast): 2.43 µM | TGI (T-47D breast): 5.93 µM | GI50 (MCF7 breast): 0.961 µM | TGI (MCF7 breast): 4.73 µM

Cn1cc(/C=C\[N+](=O)[O-])c2ccccc21
GI50 (BT-549 breast): 34.3 µM | TGI (BT-549 breast): 78.5 µM | GI50 (T-47D breast): 55.6 µM | TGI (T-47D breast): > 100 µM | GI50 (MCF7 breast): 21 µM | TGI (MCF7 breast): 80.6 µM

COc1cc(/C=C2\C(=O)N(Cc3ccc(Cl)cc3)c3ccccc32)cc(OC)c1OC
GI50 (BT-549 breast): 2.51 µM | TGI (BT-549 breast): 11.6 µM | GI50 (T-47D breast): 2.16 µM | TGI (T-47D breast): 7.72 µM | GI50 (MCF7 breast): 2.97 µM | TGI (MCF7 breast): > 61.7 µM

O=C(Nc1ccc(Oc2ccc3nc(NC(=O)c4ccco4)[nH]c3c2)cc1)Nc1cc(C(F)(F)F)ccc1F
GI50 (BT-549 breast): 2.08 µM | TGI (BT-549 breast): 6.05 µM | GI50 (T-47D breast): 2 µM | TGI (T-47D breast): 8.19 µM | GI50 (MCF7 breast): 2.94 µM | TGI (MCF7 breast): 15.6 µM

COc1cc(CNCCCCCCN2C(=O)c3cccc4cccc(c34)C2=O)ccc1O
GI50 (BT-549 breast): 14.5 µM | TGI (BT-549 breast): 27.9 µM | GI50 (T-47D breast): 2.93 µM | TGI (T-47D breast): 14.3 µM | GI50 (MCF7 breast): 1.74 µM | TGI (MCF7 breast): 3.45 µM

CCOC1=C2N=C(C(CC)c3ccccc3F)N=C2C(=O)c2ccccc21 (configuration not stated)
TGI (KM20L2 colon): > 100 µM | TGI (RXF-631 renal): > 100 µM | TGI (M19-MEL melanoma): > 100 µM

CC(=O)Nc1ccc(C(=O)CCl)cc1
GI50 (BT-549 breast): 4.94 µM | TGI (BT-549 breast): 17.1 µM | GI50 (T-47D breast): 2.68 µM | TGI (T-47D breast): 7.33 µM | GI50 (MCF7 breast): 1.66 µM | TGI (MCF7 breast): 6.54 µM

Cc1ccccc1N=Nc1c(O)ccc2ccccc12
TGI (BT-549 breast): > 100 µM | TGI (T-47D breast): > 100 µM | TGI (MDA-N): > 100 µM

CCOC(=O)c1c(-c2ccccc2)[n+](=O)c2cc(Cl)c(Cl)cc2n1[O-]
GI50 (BT-549 breast): 17.3 µM | TGI (BT-549 breast): 33.5 µM | GI50 (MCF7 breast): 2.03 µM | TGI (MCF7 breast): 20.9 µM

O=C1Nc2ccc(Cl)cc2/C1=C\c1c(-c2ccc(Cl)cc2)nc2sc(C3CC3)nn12
GI50 (BT-549 breast): 2.52 µM | TGI (BT-549 breast): 9.27 µM | GI50 (T-47D breast): 2.41 µM | TGI (T-47D breast): 22 µM | GI50 (MCF7 breast): 4.1 µM | TGI (MCF7 breast): 16.6 µM

CC(=O)C1CCN(c2ccccc2)C1 (configuration not stated)
TGI (M19-MEL melanoma): > 100 µM | TGI (DLD-1 colon): > 100 µM | TGI (SNB-78 CNS): > 100 µM

COc1cc(-c2cc(/C=C/C(=O)c3ccc(F)c(F)c3)[nH]n2)cc(OC)c1OC
GI50 (BT-549 breast): 4.1 µM | TGI (BT-549 breast): 19.3 µM | GI50 (T-47D breast): 2.45 µM | TGI (T-47D breast): 27 µM | GI50 (MCF7 breast): 3.2 µM | TGI (MCF7 breast): 12.3 µM

Cc1cc(=O)oc2ccc(OC/C=C3\CCC(=O)O3)cc12
GI50 (BT-549 breast): 7.49 µM | TGI (BT-549 breast): 23.4 µM | GI50 (T-47D breast): 2.6 µM | TGI (T-47D breast): 19.6 µM | GI50 (MCF7 breast): 2.36 µM | TGI (MCF7 breast): 13.3 µM

CCOCC1(COCC)CCC(c2[nH]ncc2CN(C)CCNC)CC1
GI50 (BT-549 breast): > 100 µM | TGI (BT-549 breast): > 100 µM | GI50 (T-47D breast): > 100 µM | TGI (T-47D breast): > 100 µM | GI50 (MCF7 breast): > 100 µM | TGI (MCF7 breast): > 100 µM

O=C(Nc1ccc(Oc2ccc(F)cc2)cc1)[C@@H]1C[C@@H](Cc2ccc(F)cc2)CN1C(=O)Cn1ccnn1
GI50 (BT-549 breast): 11.5 µM | TGI (BT-549 breast): 30 µM | GI50 (T-47D breast): 4.32 µM | TGI (T-47D breast): 36.5 µM | GI50 (MCF7 breast): 3.74 µM | TGI (MCF7 breast): 17.5 µM

COc1cc2oc(-c3cccc(C(=O)Nc4ccc(Cl)cc4)c3)cc(=O)c2c(OC)c1OC
GI50 (BT-549 breast): 1.18 µM | TGI (BT-549 breast): > 100 µM | GI50 (T-47D breast): 1.68 µM | TGI (T-47D breast): > 100 µM | GI50 (MCF7 breast): 2.94 µM | TGI (MCF7 breast): > 100 µM

NC1NC=NC2C1N=CN2C1OC(CO)C2[O][Sn][O]C21 (configuration not stated)
GI50 (KM20L2 colon): > 100 µM | TGI (KM20L2 colon): > 100 µM | GI50 (M19-MEL melanoma): > 100 µM | TGI (M19-MEL melanoma): > 100 µM | GI50 (SNB-78 CNS): > 100 µM | TGI (SNB-78 CNS): > 100 µM

O=C1/C(=C/c2ccc(Cl)c(Cl)c2)CN(C(=O)C(Cl)Cl)C/C1=C\c1ccc(Cl)c(Cl)c1
GI50 (BT-549 breast): 0.228 µM | TGI (BT-549 breast): 0.701 µM | GI50 (T-47D breast): 0.256 µM | TGI (T-47D breast): 1.77 µM | GI50 (MCF7 breast): 0.037 µM | TGI (MCF7 breast): 1.37 µM

CCN1CCN(c2nc(C)cc(N(CCCNc3ccnc4cc(Cl)ccc34)Cc3ccc4c(c3)OCO4)n2)CC1
GI50 (BT-549 breast): 1.78 µM | TGI (BT-549 breast): 3.7 µM | GI50 (T-47D breast): 2.04 µM | TGI (T-47D breast): 4.53 µM | GI50 (MCF7 breast): 1.58 µM | TGI (MCF7 breast): 10.2 µM

— PubChem BioAssay (NCI)
